{
  "source": "paper PMC6208284",
  "about": "(Phytotherapy Research, 2018)",
  "key": {"[1]": {"system": "Leishmania tarentolae promastigotes (LtP)", "assay": "Immediate mitochondrial uncoupling in LtP, OxoPlates with oligomycin", "format": "cell-based", "conditions": "positive control uncoupler, 0.7–5 μM, LtP + 5 μM Oligo", "experimental": "U‐shaped 96‐well OxoPlates (OP96U PreSens, Germany) with integrated fluorescence oxygen sensors were used for parallel LtP experiments. Oxygen concentrations were measured using a PerkinElmer Enspire fluorescence plate reader using excitation wavelength 540 nm and two emission wavelengths (reference dye 590 nm, IRef, and O2‐sensing dye 650 nm, IInd). The oxygen concentration (μM O2) was calculated according to manufacturer's instructions as described previously (Monzote et al., 2016). Measurements with LtP were performed in air‐saturated BHI medium. […] Immediately before the measurement, 150 μl of well‐aerated cell suspensions (13 × 10^7 LtP per ml) was added to the respective wells. Finally, on the top of each well, 50 μl of paraffin oil was layered. Two minutes after mixing, the fluorescence measurements at 27 °C were started, and eight measurements at 5‐min intervals were performed. From the linear part of the O2 decay, the slopes were calculated and corrected for the medium drift for further statistic evaluation. All measurements were performed at least in triplicate. For bioenergetic characterization, the ATP synthase inhibitor Oligo (5 μM) and as positive control CCCP (0.7–5 μM) were used. Respiratory control ratio (RCR) was calculated from respiration rate in the presence of Oligo and compounds/uncoupler divided by the rate in the presence of Oligo."}, "[2]": {"system": "Leishmania tarentolae promastigotes (LtP)", "assay": "Superoxide radical detection in LtP by CMH/ESR", "format": "cell-based", "conditions": "5 μM, positive control, with DFO and DTPA", "experimental": "Detection of superoxide radicals was performed using CMH as reaction partner and measuring the formed stable nitroxyl radicals by electron spin resonance (ESR) spectroscopy. Measurements were performed in PBS (136 mM NaCl, 1.15 mM KH2PO4, 14 mM Na2HPO4, and 2.7 mM KCl, pH 7.4) containing 15 mM glucose, 400 μM CMH, and 100 μM DFO (desferrioxamine mesylate) and 25 μM DTPA. Usually, these assays are performed in the presence of iron chelators (DFO and DTPA) to prevent CMH interaction with free Fe^3+ leading to CM^● unrelated to superoxide radicals. Before the measurements, LtP suspensions were washed twice with PBS to remove the medium. Typical experiments contained 5 × 10^8 LtP cells/ml. Stock solutions of EO compounds dissolved in DMSO were added. The influence of Asc (6–700 μM) on the CMH oxidation rate by LtP was assessed immediately and after prolonged incubation time (1 hr between Asc and CMH addition). The influence of iron‐dependent Asc activation in LtP on CMH oxidation was studied in the absence of iron chelators DFO and DTPA. Prior to the ESR measurement, 400 μM CMH was added. Afterwards, 17 μl of suspension was aspirated in gas‐permeable Teflon tubes (ID 0.7 mm). This capillary tube was placed in the resonator of the ESR instrument (Bruker EMX, split ring MD5, Germany), and 10 sequential measurements were performed. The following instrument settings were used: microwave frequency 9.682 GHz, modulation frequency 100 kHz, modulation amplitude 1 G, time constant 0.082 s, center field 3,446 G, scan rate 71 G/min, sweep width 100 G, scan time 84 s, and attenuation CMH: 7.96 × 10^3. From the ESR spectra, the middle peak intensity was retrieved, and concentrations of oxidized CMH were obtained by comparison with a standard curve prepared from 3‐carboxy‐proxyl solutions with defined concentrations. Four replicate measurements were performed for each condition."}, "[3]": {"set-up": "method as in Rappoport & Frankel, 1967", "conditions": "ref Rappoport & Frankel, 1967; cited from earlier work"}},
  "data": [
    {"smiles": "N#CC(C#N)=NNc1cccc(Cl)c1", "note": "[CCCP, carbonyl cyanide‐m‐chlorophenylhydrazone, reference compound]", "values": [
      {"measurement": "Oligo‐inhibited respiration in LtP", "setting": "[1]", "value": "clear increase"}
    ]},
    {"smiles": "CCCCCC[C@H]1C(=O)O[C@H](C)[C@H](NC(=O)c2cccc(NC=O)c2O)C(=O)O[C@@H](C)[C@@H]1OC(=O)CC(C)C", "note": "[AA, antimycin A, reference compound]", "values": [
      {"measurement": "CM● formation (superoxide radicals) in LtP", "setting": "[2]", "value": "showed an increase"}
    ]},
    {"smiles": "O=[N+]([O-])c1ccc(O)c([N+](=O)[O-])c1", "note": "[2,4‐dinitrophenol, reference compound]", "values": [
      {"measurement": "pKa value", "setting": "[3]", "value": "around 4"}
    ]}
  ]
}
